Experimental data: ChEMBL document CHEMBL5653631, “A Potent and Selective ULK1 Inhibitor Suppresses Autophagy and Sensitizes Cancer Cells to Nutrient Stress” (iScience, 2018)

Columns and labels:
[1] = biological target: T1, Ephrin type-A receptor 8 (Homo sapiens) (UniProt P29322); assay: Inhibition of human recombinant EphA8 at 40 nM in presence of ATP by radiometric assay relative to control
T1 sequence (whole entry): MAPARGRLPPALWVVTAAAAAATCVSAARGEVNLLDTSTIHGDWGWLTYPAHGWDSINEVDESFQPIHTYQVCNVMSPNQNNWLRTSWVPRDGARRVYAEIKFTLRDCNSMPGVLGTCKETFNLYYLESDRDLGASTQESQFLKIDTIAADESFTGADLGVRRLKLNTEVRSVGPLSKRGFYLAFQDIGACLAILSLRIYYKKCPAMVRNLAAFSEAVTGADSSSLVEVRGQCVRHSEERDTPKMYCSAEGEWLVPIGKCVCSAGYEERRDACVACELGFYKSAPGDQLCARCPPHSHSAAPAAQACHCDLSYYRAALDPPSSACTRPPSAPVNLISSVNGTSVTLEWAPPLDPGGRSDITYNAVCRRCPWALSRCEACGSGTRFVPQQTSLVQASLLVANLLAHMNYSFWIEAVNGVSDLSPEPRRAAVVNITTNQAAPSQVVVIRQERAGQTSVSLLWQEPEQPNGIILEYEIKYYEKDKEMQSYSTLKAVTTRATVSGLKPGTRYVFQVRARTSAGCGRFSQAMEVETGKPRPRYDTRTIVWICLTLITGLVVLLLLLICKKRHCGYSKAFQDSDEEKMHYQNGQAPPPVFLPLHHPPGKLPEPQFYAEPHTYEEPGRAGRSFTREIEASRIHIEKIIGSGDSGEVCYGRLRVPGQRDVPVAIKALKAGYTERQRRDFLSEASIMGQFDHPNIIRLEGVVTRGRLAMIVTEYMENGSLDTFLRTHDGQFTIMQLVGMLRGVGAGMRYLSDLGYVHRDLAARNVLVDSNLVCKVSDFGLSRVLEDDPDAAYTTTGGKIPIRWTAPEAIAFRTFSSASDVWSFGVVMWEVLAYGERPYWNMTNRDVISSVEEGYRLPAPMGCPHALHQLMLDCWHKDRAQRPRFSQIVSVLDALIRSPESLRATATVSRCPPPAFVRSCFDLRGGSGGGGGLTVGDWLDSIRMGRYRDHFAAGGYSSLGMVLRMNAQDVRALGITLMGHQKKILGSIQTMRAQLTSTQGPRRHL

[2] = biological target: T2, Serine/threonine-protein kinase Nek1 (Homo sapiens) (UniProt Q96PY6); assay: Inhibition of human recombinant NEK1 at 500 nM related to control ULK1
T2 sequence (whole entry): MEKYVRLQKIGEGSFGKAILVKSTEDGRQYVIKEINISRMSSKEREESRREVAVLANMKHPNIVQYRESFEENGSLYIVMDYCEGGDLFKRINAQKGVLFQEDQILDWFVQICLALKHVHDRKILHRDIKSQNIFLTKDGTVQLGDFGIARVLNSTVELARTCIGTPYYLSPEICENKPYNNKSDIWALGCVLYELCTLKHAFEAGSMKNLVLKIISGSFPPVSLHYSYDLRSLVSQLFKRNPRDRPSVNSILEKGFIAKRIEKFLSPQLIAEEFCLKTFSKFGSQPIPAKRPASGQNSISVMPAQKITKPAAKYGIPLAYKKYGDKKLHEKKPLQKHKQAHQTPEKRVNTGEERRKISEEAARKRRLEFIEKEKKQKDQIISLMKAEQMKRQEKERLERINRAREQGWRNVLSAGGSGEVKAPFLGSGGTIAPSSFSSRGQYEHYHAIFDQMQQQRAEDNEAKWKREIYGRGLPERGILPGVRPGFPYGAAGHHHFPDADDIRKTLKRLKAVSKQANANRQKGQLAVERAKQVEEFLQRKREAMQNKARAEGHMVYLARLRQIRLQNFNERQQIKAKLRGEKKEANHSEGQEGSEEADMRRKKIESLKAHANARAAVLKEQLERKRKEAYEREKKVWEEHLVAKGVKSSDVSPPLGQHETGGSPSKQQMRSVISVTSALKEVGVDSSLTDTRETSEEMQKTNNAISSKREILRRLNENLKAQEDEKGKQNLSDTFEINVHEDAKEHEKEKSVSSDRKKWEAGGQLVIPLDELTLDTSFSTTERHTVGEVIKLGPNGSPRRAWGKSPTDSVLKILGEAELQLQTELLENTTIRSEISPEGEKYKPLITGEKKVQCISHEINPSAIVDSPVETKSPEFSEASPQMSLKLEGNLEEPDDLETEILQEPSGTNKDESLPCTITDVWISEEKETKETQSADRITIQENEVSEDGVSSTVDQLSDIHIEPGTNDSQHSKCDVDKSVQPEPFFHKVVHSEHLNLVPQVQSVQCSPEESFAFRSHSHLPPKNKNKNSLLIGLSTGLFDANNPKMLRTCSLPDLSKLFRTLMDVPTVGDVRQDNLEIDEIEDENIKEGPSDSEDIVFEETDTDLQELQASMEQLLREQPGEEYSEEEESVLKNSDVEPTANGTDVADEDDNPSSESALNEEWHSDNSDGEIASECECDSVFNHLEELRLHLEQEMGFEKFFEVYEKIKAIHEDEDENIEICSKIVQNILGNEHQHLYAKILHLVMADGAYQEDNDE

[3] = biological target: Serine/threonine-protein kinase mTOR (Homo sapiens) (UniProt P42345); assay: Inhibition of human recombinant FRAP at 15 nM related to control ULK1
[4] = biological target: T3, TGF-beta receptor type-1 (Homo sapiens) (UniProt P36897); assay: Inhibition of human recombinant TGFbR1 at 15 nM in presence of ATP by radiometric assay relative to control
T3 sequence (whole entry): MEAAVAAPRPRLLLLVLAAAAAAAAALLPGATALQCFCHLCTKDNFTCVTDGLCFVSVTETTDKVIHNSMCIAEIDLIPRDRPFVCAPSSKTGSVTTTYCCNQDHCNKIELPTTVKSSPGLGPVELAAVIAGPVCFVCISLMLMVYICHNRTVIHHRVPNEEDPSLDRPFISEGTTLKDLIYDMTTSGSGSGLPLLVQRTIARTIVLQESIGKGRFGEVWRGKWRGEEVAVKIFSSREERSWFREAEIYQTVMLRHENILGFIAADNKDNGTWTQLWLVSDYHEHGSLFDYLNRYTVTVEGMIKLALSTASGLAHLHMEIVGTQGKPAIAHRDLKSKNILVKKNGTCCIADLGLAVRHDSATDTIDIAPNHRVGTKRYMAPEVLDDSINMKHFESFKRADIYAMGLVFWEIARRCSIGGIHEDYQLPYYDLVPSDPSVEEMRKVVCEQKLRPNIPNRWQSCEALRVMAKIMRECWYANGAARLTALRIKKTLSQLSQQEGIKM

O=C(N[C@@H](C1CC1)C(F)(F)F)c1cc(-c2cnn3cc(-c4ccc(F)cc4)cnc23)cs1
inhibition [1]: 0%

CNC(=O)c1ccccc1Oc1nc(Nc2cc(OC)c(OC)c(OC)c2)ncc1Br
fold change (FC) [2]: 0.11

CC(C)[C@H](NC(=O)c1cc(-c2cnn3cc(-c4ccc(OCCN5CCCCC5)cc4)cnc23)cs1)C(F)(F)F
fold change (FC) [3]: 0
inhibition [4]: 4%
